Test results taken from US12077555B2, “STAT degraders and uses thereof” (Kymera Therapeutics, Inc., priority 2019, dated 2024).

What was measured:
[1] = tested on: SU-DHL-1 cells; test: wash-out study in SU-DHL-1 cells; assay type: cell-based; settings: after 4 days
Protocol: FIG. 10 depicts wash-out study results with I-103 at 24 hours (A) and 48 hours (B).

[2] = tested on: STAT3-mediated gene expression (SOCS3, PD-L1); test: RT-qPCR of STAT3, SOCS3 and PDL-1 mRNA levels in SU-DHL-1 cells; assay type: cell-based; settings: FIG. 15
Protocol: FIG. 5. Includes graphical images and tables showing the results of RT-qPCR in SU-DHL-1 cells at 24 hours (A) with mRNA levels (% control) over I-103 concentration (nM)(x-axis) for STAT3, SOCS3, and PDL-1 genes and CellTiterGlo (CTG) cell viability at 4 days (B) with growth inhibition (% control) over I-103 concentration (nM)(x-axis) for MOLM-16 and SU-DHL-1 cell lines. Also shown are the results of MSD degradation DC50 (nM) in MOLM-16 and SU-DHL-1 cell lines at 24 hours.

[3] = tested on: SUP-M2 tumor cells; test: Xenograph tumor study, SUP-M2; assay type: in vivo, NOD SCID mice; settings: ALK+ALCL xenograph model SUP-M2, intermittent dosing, FIG. 20
Protocol: Animals: 50 6-8 week old female NOD SCID mice weighing 18 to 20 grams. 25 mice were used in each study.
Method for Tumor Inoculation: Each mouse was inoculated subcutaneously with SU-DHL-1 tumor cells (1×107+Matrigel) or SUP-M2 tumor cells (5×106+Matrigel) in 0.1 ml of RPMI1640 medium supplemented with 10% FBS, 100 U/ml penicillin and […] streptomycin for tumor development. Mice were then assigned to groups such that the mean tumor volume was the same for each treatment group and time point. […] Vehicle was 25% HP-β-CD in water adjusted to pH 7.4.
Measurement Parameters: Study animals were monitored not only for tumor growth but also behavior such as mobility, food and water consumption (by cage side checking only), body weight (BW), eye/hair matting and any other abnormal effect. Any mortality and/or abnormal clinical signs was recorded. Sponsor was notified immediately if abnormal clinical signs, or if tolerability issues were observed. Body weights of all animals were measured and recorded twice per week. The measurement of tumor size was conducted twice weekly with a caliper and recorded. The tumor volume (mm3) was estimated using the formula: TV=a×b2/2, where “a” and “b” are long and short diameters of a tumor, respectively.

[4] = tested on: ALK+ALCL cell lines; test: growth inhibition in multiple ALK+ALCL cell lines; assay type: cell-based; settings: dose response curves, FIG. 16
[5] = tested on: KARPAS-299 cells; test: CellTiter-Glo cell viability, KARPAS-299; assay type: cell-based
[6] = tested on: SU-DHL-1 cells; test: CellTiter-Glo cell viability, SU-DHL-1; assay type: cell-based
Protocol: Compound-mediated viability effect on MOLM-16 and SU-HDL-1 cells was quantitatively determined using the CellTiter-Glo® Luminescent Cell Viability Assay kit from Promega (Catalog number G7572) following manufacturer's recommended procedures.
Day 0: 60 nL of compounds/DMSO were stamped to the cell plate as on the recommended platemap. Compound precipitation was observed. Cells were centrifuged at 800 rpm for 5 min, suspended with culture medium, and counted with Countess (Invitrogen). The cell density was adjusted to the recommend concentration. 30 μL of cell solution (2000 cells/well) was added to the assay plate according to the platemap. 30 μL of media was added to column 2 and column 23 as on the platemap. The final concentration of the compounds except for the reference compound Paclitaxel was from 10 μM, 3-fold dilution and 11 dose (Paclitaxel started at 500 nM). The final DMSO concentration was 0.2%. The assay plate was incubated at 37° C., 5% CO2 for 4 days.
Day 4: The assay plate was equilibrated to RT for ˜10 minutes. Compound precipitation was observed (96h). To determine cell viability, 30 μL of CellTiter Glo reagent was added to each well and the assay plate was centrifuged at 1000 rpm for 30 second, incubated at room temperature for 10 min, and analyzed by detecting the luminescence using a multimode plate reader (EnVision 2105, PerkinElmer). The data was then analyzed by software Prism 7.0 from GraphPad and the dose response curves were fit using a three-parameter logistic equation to calculate EC50.

[7] = tested on: DEL cells; test: CellTiter-Glo cell viability, DEL; assay type: cell-based
[8] = tested on: PD-L1; test: STAT3 RT-qPCR assay, PD-L1 mRNA; assay type: cell-based; settings: SU-DHL-1 cells
Protocol: SU-DHL-1 cells were treated with compounds for a designed time. 0.3-0.6 mL lysis buffer with 2-mercaptoethanol was added to the collected cell pellet or monolayer cells. The cells were vortexed until the cell was dispersed and the cells appear lysed. One volume of 70% ethanol was added to each volume of cell homogenate and vortex. 700 μL of the sample was transferred to the spin cartridge and centrifuged at 12000 g for 15s at RT. The flow-through was discarded and the process repeated until the entire samples had been processed. 700 ul wash buffer I was added to the spin cartridge and centrifuged at 12000 g for 15s at RT and the flow-through was discarded. 500 μL wash buffer II with ethanol was added to the spin cartridge and centrifuged at 12000 g for 15s at RT and the flow-through was discarded. The process was then repeated. The spin cartridge was centrifuged at 12000 g for 2 min to dry the membrane with bound RNA. 30-100 μL RNase-free water was added to the center of the spin cartridge and incubated for 1 min at RT. […] The concentration of the RNA was quantitated using Nano-Drop. cDNA was formed from the RNA by reverse transcription and qPCR of the cDNA with primer of the gene of interest and housekeeping gene was preformed using the volumes below: […]

## Cn1c(=O)n(C2CCC(=O)NC2=O)c2ccc(C[C@H]3CC[C@@H](CC(=O)N4CC[C@H]5CC[C@@H](C(=O)N[C@@H](CCC(N)=O)C(=O)NC(c6ccccc6)c6ccccc6)N5C(=O)[C@@H](NC(=O)c5cc6cc(C(=O)P(=O)(O)O)ccc6[nH]5)C4)CC3)cc21 (stereo partly drawn) [Compound I-174, 2-[[(5S,8S,10aR)-8-[[(1S)-3-carbamoyl-1-(diphenylmethylcarbamoyl)propyl]carbamoyl]-6-oxo-3-[2-[(1s,4s)-4-[[1-(2,6-dioxopiperidin-3-yl)-3-methyl-2-oxo-1,3-benzodiazol-5-yl]methyl]cyclohexyl]acetyl]-octahydropyrrolo[1,2-a][1,5]diazocin-5-yl]carbamoyl]-1H-indole-5-carbonylphosphonic acid]
[1]; 24 hours wash-out
  growth and cell death after wash-out: strong growth inhibition and potential cell death
[1]; 48 hours wash-out
  growth and cell death after wash-out: complete growth inhibition and cell death
[2]
  STAT3-mediated gene expression of SOCS3 and PD-L1: repression of STAT3-mediated gene expression
[3]
  tumor regression: achieves tumor regression
[4]
  growth inhibition in multiple ALK+ALCL cell lines: mediated growth inhibition
[5]; Homo sapiens, 96 h, KARPAS-299, ALCL (ALK+), Day 4, read-out: CTG, IC50 μM, Day 4
  IC50: 0.084 µM
[5]; KARPAS-299, ALCL (ALK+), Day 4
  CTG (% Max inh), Day 4: (90) %
[5]; KARPAS-299, FIG. 16
  cell proliferation: inhibit
[6]; Homo sapiens, 96 h, SU-DHL-1, ALCL (ALK+), Day 4, read-out: CTG, IC50 μM, Day 4
  IC50: 0.015 µM
[6]; SU-DHL-1, ALCL (ALK+), Day 4
  CTG (% Max inh), Day 4: (>95) %
[6]; SU-DHL-1, FIG. 5B, FIG. 16
  cell proliferation: inhibit
[7]; 96 h, ALCL (ALK+), Day 4, read-out: CTG, IC50 μM, Day 4
  IC50: 0.016 µM
[7]; ALCL (ALK+), Day 4
  CTG (% Max inh), Day 4: (95) %
[7]; FIG. 16
  cell proliferation: inhibit
[8]; Homo sapiens, 24 hr
  IC50: 0.029 µM
[8]; FIG. 5A, FIG. 15
  STAT3-dependent gene expression of PDL-1: downregulates
